Experimental findings from BindingDB's records for doi:10.1016/j.bmcl.2004.10.091 (Martin-Luther-University Halle-Wittenberg, 2005) are described below.

Some results are limits rather than exact numbers.

Cyclin-dependent kinase 1/G2/mitotic-specific cyclin-B, sequence (Q9DGD3 whole entry): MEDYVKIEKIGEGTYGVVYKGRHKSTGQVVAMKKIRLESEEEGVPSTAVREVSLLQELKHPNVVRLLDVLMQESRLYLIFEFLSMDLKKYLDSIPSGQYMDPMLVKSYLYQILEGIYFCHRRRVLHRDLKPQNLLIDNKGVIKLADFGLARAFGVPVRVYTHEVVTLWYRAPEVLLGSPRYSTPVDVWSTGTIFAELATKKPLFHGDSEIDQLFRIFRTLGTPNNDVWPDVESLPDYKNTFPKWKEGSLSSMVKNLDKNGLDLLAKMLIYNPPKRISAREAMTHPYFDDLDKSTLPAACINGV
Cyclin-dependent kinase 1/G2/mitotic-specific cyclin-B, sequence (P15206 whole entry): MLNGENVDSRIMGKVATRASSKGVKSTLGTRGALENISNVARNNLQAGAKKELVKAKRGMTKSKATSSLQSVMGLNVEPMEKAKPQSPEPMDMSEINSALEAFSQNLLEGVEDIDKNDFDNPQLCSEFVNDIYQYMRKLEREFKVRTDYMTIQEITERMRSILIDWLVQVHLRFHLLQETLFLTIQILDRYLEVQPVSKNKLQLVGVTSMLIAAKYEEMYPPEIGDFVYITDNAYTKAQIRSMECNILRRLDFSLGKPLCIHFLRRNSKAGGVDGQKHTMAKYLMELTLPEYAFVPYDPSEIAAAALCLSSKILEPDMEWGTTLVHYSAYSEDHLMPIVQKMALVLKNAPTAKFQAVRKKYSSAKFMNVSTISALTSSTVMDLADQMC
Glycogen synthase kinase-3 beta, sequence (P18266 whole entry): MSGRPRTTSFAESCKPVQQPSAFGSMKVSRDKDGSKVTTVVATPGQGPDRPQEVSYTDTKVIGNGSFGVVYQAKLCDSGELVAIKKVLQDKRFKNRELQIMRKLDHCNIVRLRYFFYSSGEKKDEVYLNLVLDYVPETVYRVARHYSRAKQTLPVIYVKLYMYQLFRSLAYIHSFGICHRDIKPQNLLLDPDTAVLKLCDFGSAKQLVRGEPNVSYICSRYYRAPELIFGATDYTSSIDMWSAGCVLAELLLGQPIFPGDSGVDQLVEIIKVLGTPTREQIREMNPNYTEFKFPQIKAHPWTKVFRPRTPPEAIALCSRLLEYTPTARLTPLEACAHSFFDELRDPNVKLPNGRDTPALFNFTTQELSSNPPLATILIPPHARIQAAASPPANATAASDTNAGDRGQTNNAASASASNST

The first experiment addresses Glycogen synthase kinase-3 beta (Rattus norvegicus, UniProt P18266). Kind of experiment: Kinase Inhibition Assay. The following applies: 30 °C. The protocol:
(§1) Kinase activities were assayed in buffers containing substrate, enzyme, and inhibitor at 30 °C in the presence of 15 uM ATP/ [gamma-32P] ATP. 32P incorporation was measured with a scintillation counter. The IC50 is the inhibitor concentration, which inhibits 50% of kinase activity that catalyzes the transfer of the terminal phosphate from 32P labeled ATP to the substrate.
Regarding `CC(C)c1cnn2c(Nc3ccc(S(=O)(=O)N(C)C)cc3)cc(NC3CCCC(N)C3)nc12` (centres undefined) [4-({5-[(3-aminocyclohexyl)amino]-3-(propan-2-yl)pyrazolo[1,5-a]pyrimidin-7-yl}amino)-N,N-dimethylbenzene-1-sulfonamide], the IC50 (as a rule, the concentration at which inhibition is half-maximal) was above 50 µM.

In turn, `CC(C)c1cnn2c(Nc3ccc(S(=O)(=O)N(C)C)cc3)cc(N[C@H]3CC[C@H](N)CC3)nc12` [4-({5-[(4-aminocyclohexyl)amino]-3-(propan-2-yl)pyrazolo[1,5-a]pyrimidin-7-yl}amino)-N,N-dimethylbenzene-1-sulfonamide] registered an IC50 of 40 µM.

In the case of `CN(C)S(=O)(=O)c1ccc(Nc2cc(N[C@H]3CC[C@H](N)CC3)nc3c(Br)cnn23)cc1Cl` [4-({5-[(4-aminocyclohexyl)amino]-3-bromopyrazolo[1,5-a]pyrimidin-7-yl}amino)-2-chloro-N,N-dimethylbenzene-1-sulfonamide], the IC50 came out at 8.7 µM. This IC50 is about 4.6-fold lower than that of the compound before.

On to `CN(C)S(=O)(=O)c1ccc(Nc2cc(N[C@H]3CC[C@H](N)CC3)nc3c(Br)cnn23)cc1` [4-({5-[(4-aminocyclohexyl)amino]-3-bromopyrazolo[1,5-a]pyrimidin-7-yl}amino)-N,N-dimethylbenzene-1-sulfonamide], for which the 50% inhibitory concentration (IC50) turned out to be 3.4 µM.

Turning to `CN(C)S(=O)(=O)c1ccc(Nc2cc(N[C@H]3CC[C@H](N)CC3)nc3c(Cl)cnn23)cc1` [4-({5-[(4-aminocyclohexyl)amino]-3-chloropyrazolo[1,5-a]pyrimidin-7-yl}amino)-N,N-dimethylbenzene-1-sulfonamide], half-maximal inhibition (IC50) was put at 5.1 µM. This IC50 is about 1.5-fold higher than that of the compound before.

`CN(C)S(=O)(=O)c1ccc(Nc2cc(N[C@H]3CC[C@H](N)CC3)nc3c(C#N)cnn23)cc1` [4-({5-[(4-aminocyclohexyl)amino]-3-cyanopyrazolo[1,5-a]pyrimidin-7-yl}amino)-N,N-dimethylbenzene-1-sulfonamide] returned an IC50 of 0.46 µM.

On to `CN(C)S(=O)(=O)c1ccc(Nc2cc(N[C@H]3CC[C@H](N)CC3)nc3c(C4CCCC4)cnn23)cc1` [4-({5-[(4-aminocyclohexyl)amino]-3-cyclopentylpyrazolo[1,5-a]pyrimidin-7-yl}amino)-N,N-dimethylbenzene-1-sulfonamide], for which 22 µM corresponded to half-maximal inhibition (IC50).

In turn, `CC(C)c1cnn2c(Nc3ccc(S(=O)(=O)N(C)C)cc3)cc(O[C@H]3CC[C@H](N)CC3)nc12` [4-({5-[(4-aminocyclohexyl)oxy]-3-(propan-2-yl)pyrazolo[1,5-a]pyrimidin-7-yl}amino)-N,N-dimethylbenzene-1-sulfonamide] returned an IC50 of 28 µM.

The compound `CCN(CC)[C@H]1CC[C@H](Nc2cc(Nc3ccc(S(=O)(=O)N(C)C)cc3)n3ncc(C(C)C)c3n2)CC1` [4-[(5-{[4-(diethylamino)cyclohexyl]amino}-3-(propan-2-yl)pyrazolo[1,5-a]pyrimidin-7-yl)amino]-N,N-dimethylbenzene-1-sulfonamide] showed an IC50 above 50 µM.

As to `CCN[C@H]1CC[C@H](Nc2cc(Nc3ccc(S(=O)(=O)N(C)C)cc3)n3ncc(C(C)C)c3n2)CC1` [4-[(5-{[4-(ethylamino)cyclohexyl]amino}-3-(propan-2-yl)pyrazolo[1,5-a]pyrimidin-7-yl)amino]-N,N-dimethylbenzene-1-sulfonamide], the IC50 was above 50 µM.

Consider `Brc1cccc(-c2cc(NCc3ccncc3)n3nccc3n2)c1` [5-(3-bromophenyl)-N-(pyridin-4-ylmethyl)pyrazolo[1,5-a]pyrimidin-7-amine], for which the IC50 was 0.96 µM.

`N[C@H]1CC[C@H](Nc2cc(Nc3ccc(S(=O)(=O)c4ccccc4)cc3)n3ncc(Br)c3n2)CC1` [5-N-(4-aminocyclohexyl)-7-N-[4-(benzenesulfonyl)phenyl]-3-bromopyrazolo[1,5-a]pyrimidine-5,7-diamine] had a half-maximal inhibitory concentration (IC50) of 5.3 µM.

In the case of `CC(C)c1cnn2c(Nc3ccc(S(C)(=O)=O)cc3)cc(Cl)nc12` [5-chloro-N-(4-methanesulfonylphenyl)-3-(propan-2-yl)pyrazolo[1,5-a]pyrimidin-7-amine], the IC50 turned out to be 11 µM.

Take `CS(=O)(=O)c1ccc(Nc2cc(Cl)nc3ccnn23)cc1` [5-chloro-N-(4-methanesulfonylphenyl)pyrazolo[1,5-a]pyrimidin-7-amine]: the half-maximal inhibitory concentration (IC50) was 3.1 µM.

Consider `CC(C)COc1cc(Nc2ccc(S(=O)(=O)N(C)C)cc2)n2ncc(C(C)C)c2n1` [N,N-dimethyl-4-{[5-(2-methylpropoxy)-3-(propan-2-yl)pyrazolo[1,5-a]pyrimidin-7-yl]amino}benzene-1-sulfonamide], for which the 50% inhibitory concentration (IC50) came to 50 µM.

For the compound `CC(C)COc1cc(Nc2ccc(S(C)(=O)=O)cc2)n2ncc(C(C)C)c2n1` [N-(4-methanesulfonylphenyl)-5-(2-methylpropoxy)-3-(propan-2-yl)pyrazolo[1,5-a]pyrimidin-7-amine], the half-inhibitory concentration (IC50) was determined as 12 µM.

Another experiment concerns the target Cyclin-dependent kinase 1/G2/mitotic-specific cyclin-B (Marthasterias glacialis, UniProt P15206+Q9DGD3). Briefly: Kinase Inhibition Assay. The following applies: pH 7.2; 30 °C. The protocol:
as §1
In the case of `Oc1ccc2oc3ncc(Cl)c(-c4ccccc4)c3c2c1` [4-chloro-3-phenyl-8-oxa-6-azatricyclo[7.4.0.0^{2,7}]trideca-1(13),2(7),3,5,9,11-hexaen-12-ol], the IC50 was above 100 µM.

With `CCOc1cnc2oc3ccc(O)cc3c2c1-c1ccccc1` [4-ethoxy-3-phenyl-8-oxa-6-azatricyclo[7.4.0.0^{2,7}]trideca-1(13),2(7),3,5,9,11-hexaen-12-ol], the concentration for half-maximal inhibition (IC50) was above 100 µM.

The compound `Cc1cnc2oc3ccc(O)cc3c2c1-c1ccccc1` [4-methyl-3-phenyl-8-oxa-6-azatricyclo[7.4.0.0^{2,7}]trideca-1(13),2(7),3,5,9,11-hexaen-12-ol] gave an IC50 above 100 µM.
